# Experimental data from PMC9841523 (Journal of Medicinal Chemistry, 2022).
# Where two headings read alike, the source gives them in different places.
# Tests used:
# Format in all cases: cell-based
# [1] = test system: AKT S473 phosphorylation (mTORC2); experiment: AlphaLISA/MSD analysis of AKT phosphorylation in MDA-MB-468 cells; details: for IC50: Homo sapiens
# Procedure: (§1) Cell culture and reagents. Cells were obtained from ATCC, grown in appropriate medium supplemented with 10% fetal bovine serum and 1% penicillin/streptomycin and maintained at 37 °C in a humidified incubator at 5% CO 2.
# (§2) AlphaLISA and MesoScale Discovery (MSD) analysis of 4EBP1, S6K and AKT phosphorylation. mTOR substrate phosphorylation in MDA-MB-468 cells was assayed using AlphaLISA SureFire Ultra kits for p4EBP1 Thr37/46, p-P70S6K Thr389 and p-AKT1/2/3 Ser473 (PerkinElmer), and MSD Multi-Array Assay Systems for Phospho-4EBP1 (Thr37/46) and Phospho-AKT (Ser473) (MSD). Cells were seeded at 25,000 cells per well and exposed the next day to serial three-fold dilutions of compounds in complete medium with 0.1% dimethylsulfoxide (DMSO). After indicated incubation times, cells were lysed and AlphaLISA or MSD performed according to the manufacturers’ protocols. Samples were read using an EnVision Multilabel Plate Reader (PerkinElmer) using standard AlphaLISA settings or using an MSD plate reader. Data were plotted as a function of logM [compound] with a sigmoidal concentration response (variable slope) model fitted to the data to estimate the inhibitor half-maximum effective concentration (EC 50) in Prism 7 (GraphPad). Alternatively, results were analyzed as percentage of control in which 0% was set as signal from 1 μM Torin1 and 100% was set as the mean of DMSO wells on each plate, and inhibitor EC 50 was estimated as described
# [2] = test system: p-P70S6K Thr389; experiment: AlphaLISA/MSD analysis of S6K phosphorylation in MDA-MB-468 cells; details: Homo sapiens; MDA-MB-468 cells; read-out: pS6K IC50
# Procedure: as §1, §2
# [3] = test system: 4EBP1 T37/T46 phosphorylation (mTORC1); experiment: AlphaLISA/MSD analysis of 4EBP1 phosphorylation in MDA-MB-468 cells; details: for IC50: Homo sapiens, read-out: p4EBP1 IC50; for reduction in mTORC1 p4EBP1 activity on going from 8 PEG units to 6 PEG units: versus the 8 PEG analog
# Procedure: as §1, §2
# [4] = MDA-MB-468 cells, read-out: pAKT IC50
# [5] = up to a maximal test concentration of 1 μM
Structure (SMILES),"IC50 [1, 4] [nM]",IC50 [2] [nM],IC50 ([3]; MDA-MB-468 cells) [nM],"IC50 ([1]; MDA-MB-468, read-out: pAKT IC50) [nM]","selectivity for mTORC1 over mTORC2 ([3]; pAKT versus p4EBP1 inhibition, MDA-MB-468 cells)","pAKT inhibition [1, 5]","p4EBP1 inhibition [3, 5]",reduction in mTORC1 p4EBP1 activity on going from 8 PEG units to 6 PEG units [3] [fold]
"CO[C@H]1C[C@@H]2CC[C@@H](C)[C@@](O)(O2)C(=O)C(=O)N2CCCC[C@H]2C(=O)O[C@H]([C@H](C)C[C@@H]2CC[C@@H](OCCOCc3cn(CCOCCOCCOCCOCCOCCOCCOCCOCCC(=O)NCCCCn4nc(-c5ccc6oc(N)nc6c5)c5c(N)ncnc54)nn3)[C@H](OC)C2)CC(=O)[C@H](C)/C=C(\C)[C@@H](O)[C@@H](OC)C(=O)[C@H](C)C[C@H](C)/C=C/C=C/C=C/1C [compound 3, RapaLink-1, reference compound]",6.7,0.93,1.7,,,,,
"Nc1ncnc2c1c(-c1cnc3[nH]ccc3c1)nn2C1CCCC1 [compound 8, PP121, reference compound]",,,,100,,,,
CO[C@H]1C[C@@H]2CC[C@@H](C)[C@@](O)(O2)C(=O)C(=O)N2CCCC[C@H]2C(=O)O[C@H]([C@H](C)C[C@@H]2CC[C@@H](OCCCCc3cn(CCOCCOCCOCCOCCOCCOCCOCCOCCC(=O)NCCCCn4nc(-c5ccc6oc(N)nc6c5)c5c(N)ncnc54)nn3)[C@H](OC)C2)CC(=O)[C@H](C)/C=C(\C)[C@@H](O)[C@@H](OC)C(=O)[C@H](C)C[C@H](C)/C=C/C=C/C=C/1C [compound 16],3.1,0.42,1.1,,,,,
"CO[C@H]1C[C@@H]2CC[C@@H](C)[C@@](O)(O2)C(=O)C(=O)N2CCCC[C@H]2C(=O)O[C@H]([C@H](C)C[C@@H]2CC[C@@H](OCCOCc3cn(CCOCCOCCOCCOCCOCCOCCOCCOCCC(=O)NCCCCn4nc(-c5cc6cc(O)ccc6[nH]5)c5c(N)ncnc54)nn3)[C@H](OC)C2)CC(=O)[C@H](C)/C=C(\C)[C@@H](O)[C@@H](OC)C(=O)[C@H](C)C[C@H](C)/C=C/C=C/C=C/1C [compound 17, reference compound]",24,0.47,2.5,,,,,
CO[C@H]1C[C@@H]2CC[C@@H](C)[C@@](O)(O2)C(=O)C(=O)N2CCCC[C@H]2C(=O)O[C@H]([C@H](C)C[C@@H]2CC[C@@H](OCCCCc3cn(CCOCCOCCOCCOCCOCCOCCOCCOCCC(=O)NCCCCn4nc(-c5cc6cc(O)ccc6[nH]5)c5c(N)ncnc54)nn3)[C@H](OC)C2)CC(=O)[C@H](C)/C=C(\C)[C@@H](O)[C@@H](OC)C(=O)[C@H](C)C[C@H](C)/C=C/C=C/C=C/1C [compound 18],18,0.28,1.4,,approximately 13 fold,,,
COc1ccc(-c2ccc3ncc4c(c3c2)n(C)c(=O)n4-c2ccc(N3CCN(C(=O)CCOCCOCCOCCOCCOCCOCCOCCOCCn4cc(CCCCO[C@@H]5CC[C@@H](C[C@@H](C)[C@@H]6CC(=O)[C@H](C)/C=C(\C)[C@@H](O)[C@@H](OC)C(=O)[C@H](C)C[C@H](C)/C=C/C=C/C=C(\C)[C@@H](OC)C[C@@H]7CC[C@@H](C)[C@@](O)(O7)C(=O)C(=O)N7CCCC[C@H]7C(=O)O6)C[C@H]5OC)nn4)CC3)c(C(F)(F)F)c2)cn1 [compound 19],0.52,0.02,0.06,,,,,
CO[C@H]1C[C@@H]2CC[C@@H](C)[C@@](O)(O2)C(=O)C(=O)N2CCCC[C@H]2C(=O)O[C@H]([C@H](C)C[C@@H]2CC[C@@H](OCCCCc3cn(CCOCCOCCOCCOCCOCCOCCOCCOCCC(=O)NCCCCn4nc(-c5cnc6[nH]ccc6c5)c5c(N)ncnc54)nn3)[C@H](OC)C2)CC(=O)[C@H](C)/C=C(\C)[C@@H](O)[C@@H](OC)C(=O)[C@H](C)C[C@H](C)/C=C/C=C/C=C/1C [compound 20],17,0.22,1,,,,,
CO[C@H]1C[C@@H]2CC[C@@H](C)[C@@](O)(O2)C(=O)C(=O)N2CCCC[C@H]2C(=O)O[C@H]([C@H](C)C[C@@H]2CC[C@@H](OCCCCc3cn(CCOCCOCCOCCOCCOCCOCCOCCOCCC(=O)N4CCc5cc(Cn6nc(-c7ccc8oc(N)nc8c7)c7c(N)ncnc76)ccc5C4)nn3)[C@H](OC)C2)CC(=O)[C@H](C)/C=C(\C)[C@@H](O)[C@@H](OC)C(=O)[C@H](C)C[C@H](C)/C=C/C=C/C=C/1C [compound 21],8.8,0.13,0.44,,,,,
CO[C@H]1C[C@@H]2CC[C@@H](C)[C@@](O)(O2)C(=O)C(=O)N2CCCC[C@H]2C(=O)O[C@H]([C@H](C)C[C@@H]2CC[C@@H](OCCCCc3cn(CCOCCOCCOCCOCCOCCOCCOCCOCCC(=O)N4CCC(Cn5nc(-c6ccc7oc(N)nc7c6)c6c(N)ncnc65)CC4)nn3)[C@H](OC)C2)CC(=O)[C@H](C)/C=C(\C)[C@@H](O)[C@@H](OC)C(=O)[C@H](C)C[C@H](C)/C=C/C=C/C=C/1C [compound 22],1.8,0.16,0.67,,,,,
CO[C@H]1C[C@@H]2CC[C@@H](C)[C@@](O)(O2)C(=O)C(=O)N2CCCC[C@H]2C(=O)O[C@H]([C@H](C)C[C@@H]2CC[C@@H](OCCCCc3cn(CCOCCOCCOCCOCCOCCOCCOCCOCCC(=O)NCCCCn4nc(-c5ccc6oc(N)nc6c5)c5c(N(C)C)ncnc54)nn3)[C@H](OC)C2)CC(=O)[C@H](C)/C=C(\C)[C@@H](O)[C@@H](OC)C(=O)[C@H](C)C[C@H](C)/C=C/C=C/C=C/1C [compound 23],> 1000,0.29,> 1000,,,inactive,inactive,
CO[C@H]1C[C@@H]2CC[C@@H](C)[C@@](O)(O2)C(=O)C(=O)N2CCCC[C@H]2C(=O)O[C@H]([C@H](C)C[C@@H]2CC[C@@H](OCCCCc3cn(CCOCCOCCOCCOCCOCCOCCC(=O)NCCCCn4nc(-c5cnc6[nH]ccc6c5)c5c(N)ncnc54)nn3)[C@H](OC)C2)CC(=O)[C@H](C)/C=C(\C)[C@@H](O)[C@@H](OC)C(=O)[C@H](C)C[C@H](C)/C=C/C=C/C=C/1C [compound 24],110,0.24,31,,,,,> 30
CO[C@H]1C[C@@H]2CC[C@@H](C)[C@@](O)(O2)C(=O)C(=O)N2CCCC[C@H]2C(=O)O[C@H]([C@H](C)C[C@@H]2CC[C@@H](OCCCCc3cn(CCOCCOCCOCCOCCOCCOCCC(=O)NCCCCn4nc(-c5cc6cc(O)ccc6[nH]5)c5c(N)ncnc54)nn3)[C@H](OC)C2)CC(=O)[C@H](C)/C=C(\C)[C@@H](O)[C@@H](OC)C(=O)[C@H](C)C[C@H](C)/C=C/C=C/C=C/1C [compound 25],120,0.59,370,,,,,> 250
COc1ccc(-c2ccc3ncc4c(c3c2)n(-c2ccc(N3CCN(C(=O)CCOCCOCCOCCOCCOCCOCCn5cc(CCCCO[C@@H]6CC[C@@H](C[C@@H](C)[C@@H]7CC(=O)[C@H](C)/C=C(\C)[C@@H](O)[C@@H](OC)C(=O)[C@H](C)C[C@H](C)/C=C/C=C/C=C(\C)[C@@H](OC)C[C@@H]8CC[C@@H](C)[C@@](O)(O8)C(=O)C(=O)N8CCCC[C@H]8C(=O)O7)C[C@H]6OC)nn5)CC3)c(C(F)(F)F)c2)c(=O)n4C)cn1 [compound 26],0.74,0.03,0.08,,,,,
CO[C@H]1C[C@@H]2CC[C@@H](C)[C@@](O)(O2)C(=O)C(=O)N2CCCC[C@H]2C(=O)O[C@H]([C@H](C)C[C@@H]2CC[C@@H](OCCCCc3cn(CCOCCOCCOCCOCCOCCOCCC(=O)NCCCCn4nc(-c5ccc6oc(N)nc6c5)c5c(N)ncnc54)nn3)[C@H](OC)C2)CC(=O)[C@H](C)/C=C(\C)[C@@H](O)[C@@H](OC)C(=O)[C@H](C)C[C@H](C)/C=C/C=C/C=C/1C [compound 27],5.2,0.26,1.1,,,,,
CO[C@H]1C[C@@H]2CC[C@@H](C)[C@@](O)(O2)C(=O)C(=O)N2CCCC[C@H]2C(=O)O[C@H]([C@H](C)C[C@@H]2CC[C@@H](OCCCCc3cn(CCOCCOCCOCCOCCOCCC(=O)NCCCCn4nc(-c5ccc6oc(N)nc6c5)c5c(N)ncnc54)nn3)[C@H](OC)C2)CC(=O)[C@H](C)/C=C(\C)[C@@H](O)[C@@H](OC)C(=O)[C@H](C)C[C@H](C)/C=C/C=C/C=C/1C [compound 28],33,0.37,25,,,,,
CO[C@H]1C[C@@H]2CC[C@@H](C)[C@@](O)(O2)C(=O)C(=O)N2CCCC[C@H]2C(=O)O[C@H]([C@H](C)C[C@@H]2CC[C@@H](OC(=O)NCCOCCOCCOCCOCCOCCOCCOCCOCCC(=O)NCCCCn3nc(-c4ccc5oc(N)nc5c4)c4c(N)ncnc43)[C@H](OC)C2)CC(=O)[C@H](C)/C=C(\C)[C@@H](O)[C@@H](OC)C(=O)[C@H](C)C[C@H](C)/C=C/C=C/C=C/1C [compound 29],3.6,0.61,1.7,,,,,
CO[C@H]1C[C@@H]2CC[C@@H](C)[C@@](O)(O2)C(=O)C(=O)N2CCCC[C@H]2C(=O)O[C@H]([C@H](C)C[C@@H]2CC[C@@H](OC(=O)NCCOCCOCCOCCOCCOCCOCCOCCOCCC(=O)N3CCc4cc(Cn5nc(-c6ccc7oc(N)nc7c6)c6c(N)ncnc65)ccc4C3)[C@H](OC)C2)CC(=O)[C@H](C)/C=C(\C)[C@@H](O)[C@@H](OC)C(=O)[C@H](C)C[C@H](C)/C=C/C=C/C=C/1C [compound 30],4.7,0.19,0.42,,,,,
